Data published in ChEMBL document CHEMBL2057131, “Novel steroid inhibitors of glucose 6-phosphate dehydrogenase” (J Med Chem, 2012).
pIC50: −log10 of the molar value.

Columns and labels:
[1] = biological target: Cytochrome P450 2C9 (Homo sapiens, UniProt P11712); experiment: Inhibition of CYP2C9 at > 25 uM; format: ADME
[2] = biological target: T1, Glucose-6-phosphate 1-dehydrogenase (Homo sapiens, UniProt P11413); experiment: Inhibition of G6PD in HEK293T cells assessed as accumulation of 6-phosphogluconate after 5 hrs by LC-MS/MS analysis using 6-aminonicotinamide; format: cell-based, HEK-293T
[3] = Aqueous solubility of the compound in phosphate buffer by turbidimetric method; format: physicochemical
[4] = biological target: T1, Glucose-6-phosphate 1-dehydrogenase; experiment: Inhibition of human recombinant N-terminal His tagged G6PD expressed in Escherichia coli JM109 (DE3) cells assessed as production of NADPH after 30 mins by Amplite fluorimetric assay
[5] = biological target: T2, Cytochrome P450 1A (Homo sapiens, UniProt P04798+P05177); experiment: Inhibition of CYP1A at > 25 uM; format: ADME
T2 sequence (P04798 whole entry): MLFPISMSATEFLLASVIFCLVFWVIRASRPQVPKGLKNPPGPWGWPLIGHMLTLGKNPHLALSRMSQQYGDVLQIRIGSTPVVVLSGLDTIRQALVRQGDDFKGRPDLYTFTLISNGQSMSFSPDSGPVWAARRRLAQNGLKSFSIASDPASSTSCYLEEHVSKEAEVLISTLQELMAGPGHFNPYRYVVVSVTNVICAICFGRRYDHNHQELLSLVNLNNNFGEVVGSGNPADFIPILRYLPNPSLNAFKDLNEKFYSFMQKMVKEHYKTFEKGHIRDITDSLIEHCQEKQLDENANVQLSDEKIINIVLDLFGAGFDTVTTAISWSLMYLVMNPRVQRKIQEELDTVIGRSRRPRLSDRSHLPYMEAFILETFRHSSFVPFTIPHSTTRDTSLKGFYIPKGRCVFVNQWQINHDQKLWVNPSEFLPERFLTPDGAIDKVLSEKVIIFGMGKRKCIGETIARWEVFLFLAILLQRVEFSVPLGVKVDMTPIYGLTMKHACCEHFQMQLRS
T2 sequence (P05177 whole entry): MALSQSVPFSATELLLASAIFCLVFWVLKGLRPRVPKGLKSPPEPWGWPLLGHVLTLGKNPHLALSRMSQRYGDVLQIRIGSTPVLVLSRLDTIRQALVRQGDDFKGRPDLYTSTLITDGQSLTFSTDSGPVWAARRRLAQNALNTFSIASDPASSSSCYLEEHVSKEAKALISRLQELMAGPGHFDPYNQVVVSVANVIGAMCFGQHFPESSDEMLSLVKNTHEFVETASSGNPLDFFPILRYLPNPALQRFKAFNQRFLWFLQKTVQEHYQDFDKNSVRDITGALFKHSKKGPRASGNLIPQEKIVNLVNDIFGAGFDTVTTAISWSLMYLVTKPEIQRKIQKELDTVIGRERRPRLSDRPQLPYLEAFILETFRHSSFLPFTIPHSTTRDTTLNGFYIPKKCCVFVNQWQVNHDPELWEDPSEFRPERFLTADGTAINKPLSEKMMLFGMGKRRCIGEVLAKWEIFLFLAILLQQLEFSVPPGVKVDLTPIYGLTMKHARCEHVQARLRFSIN

[6] = biological target: Cytochrome P450 2C19 (Homo sapiens, UniProt P33261); experiment: Inhibition of CYP2C19 at > 25 uM; format: ADME
[7] = biological target: Cytochrome P450 3A4 (Homo sapiens, UniProt P08684); experiment: Inhibition of CYP3A4 at > 25 uM; format: ADME
[8] = biological target: T1, Glucose-6-phosphate 1-dehydrogenase; experiment: Ratio of IC50 for G6PD in HEK293T cells to IC50 for human recombinant G6PD expressed in Escherichia coli JM109 (DE3) cells; conditions: HEK-293T
[9] = biological target: Cytochrome P450 2D6 (Homo sapiens, UniProt P10635); experiment: Inhibition of CYP2D6 at > 25 uM; format: ADME
Sequence of Cytochrome P450 2D6 (P10635 whole entry): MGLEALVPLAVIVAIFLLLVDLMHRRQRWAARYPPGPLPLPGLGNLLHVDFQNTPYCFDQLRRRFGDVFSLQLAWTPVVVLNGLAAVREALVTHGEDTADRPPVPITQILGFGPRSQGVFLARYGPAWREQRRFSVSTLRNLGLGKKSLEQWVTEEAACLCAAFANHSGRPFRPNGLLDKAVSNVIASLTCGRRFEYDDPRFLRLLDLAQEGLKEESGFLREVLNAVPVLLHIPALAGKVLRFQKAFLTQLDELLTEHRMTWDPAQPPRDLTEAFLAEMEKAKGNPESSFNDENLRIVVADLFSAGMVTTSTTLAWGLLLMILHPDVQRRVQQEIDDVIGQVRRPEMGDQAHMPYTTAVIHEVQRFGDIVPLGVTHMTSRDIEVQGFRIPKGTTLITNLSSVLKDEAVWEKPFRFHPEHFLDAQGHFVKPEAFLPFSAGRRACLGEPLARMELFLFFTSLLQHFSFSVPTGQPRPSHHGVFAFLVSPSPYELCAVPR

T1 sequence (P11413 whole entry): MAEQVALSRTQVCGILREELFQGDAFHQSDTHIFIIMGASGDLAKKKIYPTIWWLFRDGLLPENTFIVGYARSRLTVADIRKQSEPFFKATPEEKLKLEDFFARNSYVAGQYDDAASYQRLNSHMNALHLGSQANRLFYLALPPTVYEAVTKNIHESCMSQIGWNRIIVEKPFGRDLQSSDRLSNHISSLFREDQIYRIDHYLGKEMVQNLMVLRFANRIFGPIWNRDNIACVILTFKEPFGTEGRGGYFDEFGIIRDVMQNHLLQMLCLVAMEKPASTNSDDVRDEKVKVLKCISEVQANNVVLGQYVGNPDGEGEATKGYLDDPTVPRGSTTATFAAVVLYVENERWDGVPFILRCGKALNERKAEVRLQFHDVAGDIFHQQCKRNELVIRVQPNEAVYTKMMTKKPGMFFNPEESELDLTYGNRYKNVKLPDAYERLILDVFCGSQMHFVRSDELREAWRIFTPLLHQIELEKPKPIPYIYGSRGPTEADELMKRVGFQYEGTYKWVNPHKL
Sequence of Cytochrome P450 2C9 (P11712 whole entry): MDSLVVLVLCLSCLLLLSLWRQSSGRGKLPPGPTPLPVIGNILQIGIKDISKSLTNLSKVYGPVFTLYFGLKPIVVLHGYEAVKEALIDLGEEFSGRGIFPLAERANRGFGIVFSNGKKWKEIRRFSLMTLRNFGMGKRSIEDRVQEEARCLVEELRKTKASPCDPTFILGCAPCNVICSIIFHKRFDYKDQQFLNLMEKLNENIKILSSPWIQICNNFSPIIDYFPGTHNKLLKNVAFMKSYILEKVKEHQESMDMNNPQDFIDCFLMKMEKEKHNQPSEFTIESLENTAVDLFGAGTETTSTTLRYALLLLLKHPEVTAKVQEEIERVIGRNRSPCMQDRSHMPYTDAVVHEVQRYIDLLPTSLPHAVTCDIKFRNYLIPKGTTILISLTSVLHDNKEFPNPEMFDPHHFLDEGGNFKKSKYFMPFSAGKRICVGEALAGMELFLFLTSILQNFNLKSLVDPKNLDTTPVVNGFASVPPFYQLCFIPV
Sequence of Cytochrome P450 3A4 (P08684 whole entry): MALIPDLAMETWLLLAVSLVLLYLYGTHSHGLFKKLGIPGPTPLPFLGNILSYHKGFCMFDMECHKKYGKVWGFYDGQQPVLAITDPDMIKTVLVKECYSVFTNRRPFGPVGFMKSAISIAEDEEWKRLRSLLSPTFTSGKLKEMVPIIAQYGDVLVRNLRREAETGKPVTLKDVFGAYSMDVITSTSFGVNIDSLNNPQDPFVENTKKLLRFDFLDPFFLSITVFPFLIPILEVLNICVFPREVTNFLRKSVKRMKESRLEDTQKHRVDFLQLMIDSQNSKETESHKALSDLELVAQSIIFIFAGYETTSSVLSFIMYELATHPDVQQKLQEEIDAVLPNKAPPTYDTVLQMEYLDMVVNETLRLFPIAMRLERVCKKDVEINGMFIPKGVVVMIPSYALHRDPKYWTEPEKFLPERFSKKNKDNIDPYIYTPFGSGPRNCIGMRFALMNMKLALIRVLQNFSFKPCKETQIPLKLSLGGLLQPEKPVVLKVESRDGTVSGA
Sequence of Cytochrome P450 2C19 (P33261 whole entry): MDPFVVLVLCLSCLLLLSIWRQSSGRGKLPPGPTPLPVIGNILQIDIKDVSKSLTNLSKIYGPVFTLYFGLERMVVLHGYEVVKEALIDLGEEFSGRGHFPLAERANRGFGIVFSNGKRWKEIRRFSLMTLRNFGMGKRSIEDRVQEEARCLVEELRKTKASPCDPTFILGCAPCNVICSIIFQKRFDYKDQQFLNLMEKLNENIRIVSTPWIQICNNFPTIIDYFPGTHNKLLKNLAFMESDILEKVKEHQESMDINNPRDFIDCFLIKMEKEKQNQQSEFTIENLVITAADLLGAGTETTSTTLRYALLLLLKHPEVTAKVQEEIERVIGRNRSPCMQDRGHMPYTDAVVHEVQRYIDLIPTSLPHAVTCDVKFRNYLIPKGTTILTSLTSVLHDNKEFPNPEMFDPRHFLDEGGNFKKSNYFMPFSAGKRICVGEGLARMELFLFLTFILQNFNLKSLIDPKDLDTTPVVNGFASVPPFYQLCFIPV

C[C@]12CC[C@H](O)C[C@@H]1CC[C@@H]1[C@@H]2CC[C@]2(C)[C@@H](C(=O)CO)CC[C@@H]12
inhibition (INH) [1]: Not Active | pIC50 [2]: 4.91 | solubility kinetic [3]: > 100 µM | pIC50 [4]: 6.05 | inhibition (INH) [5]: Not Active | inhibition (INH) [6]: Not Active | inhibition (INH) [7]: Not Active | Ratio IC50 [8]: 13.7 | inhibition (INH) [9]: Not Active
